# “Also recorded” adds a separate entry of the source.
# Experiments:
# [1] = tested on: C57BL/6 mice with DSS-induced mild colitis; test: DSS induced mild colitis treatment with LGG metabolites (2.5% DSS); format: in vivo, mouse; conditions: metabolite i.p. twice
# Procedure: FIG. 13A-13M. IPA requires Ocln to alleviate LPS-induced leaky epithelium. FIG. 13A, experimental design. Organoids were derived from tamoxifen-inducible, intestine-specific Ocln-knockout (KO) mice generated by crossing a floxed Ocln^fl/fl with Villin-CreERT2 mice. FIG. 13B, Representative images and FIG. 13C, quantitative analysis of permeability assay. LPS was added to CCM media (basolateral side) with and without IPA […] and IAM (200 μM) (n=3 mice). *** P<0.001, compared with WT control, †P<0.05 compared with KO-control. FIG. 13D, Representative images of immunofluorescent staining of Ocln in WT control and Ocln KO conventional mice, L=lumen. MNA improves but ASA exacerbates dextran sodium sulfate (DSS)-induced leaky gut. FIG. 13E, experimental design, evaluation in vivo of metabolites (Met). Methylnicotinamide (MNA. […]) and L-argininosuccinate (ASA. 3.6 mg/kg) were administered (i.p.) twice 1-day before and 3 days after DSS treatment p.o. 4 kDa fluorescein isothiocyanate (FITC)-dextran was gavaged 4 h before sacrifice. FIG. 13F, body weight of DSS-treated mice with and without metabolites, FIG. 13G, representative images of Ocln-stained colon sections (green; left panel) and ECad (red; middle). Merged images (yellow; right panel) depict Ocln location in TJ of MNA-treated but not in DSS-only and ASA-treated colon (arrows). Quantitative fluorescent intensity of Ocln (FIG. 13H) and ECad (FIG. 13I) in the TJ, relative to DSS only controls. FIG. 13J, DSS scoring. FIG. 13K, representative H&E images of DSS, DSS+ MNA and DSS+ASA colon sections. FIG. 13L, In vivo permeability as determined by fluorescent intensity of FITC in serum. FIG. 13M, Serum level of interleukin-6.
# DSS induced mild colitis treatment with LGG metabolites. To assess in vivo impact of metabolites on gut barrier function, conventional C57BL/6 mice (8 weeks of age) were administered with 2.5% dextran sodium sulfate (DSS) in drinking water to induce mild colitis. Animals were intraperitoneal injected with either PBS vehicle, 30 mg/kg methylnicotinamide chloride, or 3.6 mg/kg argininosuccinic acid dissolved in sterile PBS at Day-1 and Day 4 of the experiment. Body weight was recorded daily. At Day 7, 4 hours before sacrifice and collection of blood, animals were gavaged with 600 mg/kg with 4 kDa FITC-dextran. Blood was collected in 5% EDTA and subsequently centrifuged at 3000 g for 5 minutes for plasma collection. FITC readings were collected by diluting 25 μl of plasma in 75 μl of PBS and analyzed using a Glomax (Promega, GMMTE9032) with Ex490/Em510-570 filter cube module. Serum concentration of interleukin-6 (Cat. No. Biolegend 431304) was also determined. Ileum and colon sections were collected, fixed in 4% paraformaldehyde, processed for embedding in paraffin wax. Pathohistology of intestine was observed by routine H&E staining.
# [2] = tested on: leaky gut mouse model (DSS colitis); test: DSS (3%) leaky gut colitis mouse model, metabolites i.p.; format: in vivo
# Source text: A moderate amount of DSS (3%) creates a leaky gut model.
# FIG. 23A, Analysis of plasma ovalbumin levels after oral ovalbumin gavage in mice treated with exogenous MNA or PBS. […] Analysis of fecal lipocalin levels in mice treated with PBS or MNA with or without DSS. […] Representative histology sections of mice treated with PBS or MNA with or without DSS. FIG. 23D, quantification of mouse histology sections scored for colitis index.
# FIG. 24A, Analysis of zonula occludens (Tjp1) and occluding (Ocln) mRNA levels after treatment with PBS or MNA with or without DSS. FIG. 24B, Western blot analysis and quantification of Ocln protein levels after treatment with PBS or MNA with or without DSS. FIG. 24C, Quantified levels of occluding in the ileum (top) and colon (bottom) using immunofluorescence antibody staining.
# Administration of DSS induces experimental colitis and disrupts gut barrier in vivo in animal models.
# Exogenous MNA administration was assessed by plasma ovalbumin levels after oral ovalbumin gavage—an accepted method to determine permeability of the gut paracellular pathway. […] (FIG. 23B) Histology sections of mice treated with or without DSS and PBS or MNA were also obtained. […] Sections from several mice were also examined by a blinded observer and scored for colitis index.
# (FIG. 24B) Using immunofluoresce antibody staining, quantified levels of occludin in the ileum and colon were also analyzed.
# [3] = tested on: human-derived Caco-2 cells; test: In vitro transwell screening in Caco-2 cells, barrier disrupted by Clostridium difficile toxin (TEER and FITC-dextran permeability); format: cell-based; conditions: applied in the basolateral compartment, TOX
SMILES,E-cad abundance and localization in colonic epithelial cells [1],Ocln expression in colonic epithelium [1],pathology score (epithelial cell disruption and immune cell infiltration) [1],DSS-induced leaky gut (overall) ([1]; listed as MNA),serum IL-6 level ([1]; listed as MNA),"body weight loss and recovery in DSS leaky gut model ([2]; 3% DSS, i.p. every other day, listed as MNA)",tissue damage in histology sections ([2]; DSS-treated animals),fecal lipocalin levels ([2]; MNA-DSS vs PBS-DSS),"body weight when injected alone ([2]; i.p. every other day, no DSS)","barrier function (plasma ovalbumin after oral ovalbumin gavage), increase vs PBS treated mice ([2]; i.p. injection) [fold]","colitis score (colitis index, blinded observer) ([2]; with DSS)",mRNA levels of Tjp1 and Ocln in the ileum ([2]; with DSS),"TEER, indole metabolites [3]"
"C[n+]1cccc(C(N)=O)c1 [Methylnicotinamide, 1-methynicotinamide]",significantly increased,significantly elevated Ocln expression,improved pathology score,sealed the leaky gut; also recorded: improves,decreased; also recorded: reduced serum proinflammatory IL-6 levels,dampened then accelerated the recovery of body weight; also recorded: robust and faster recovery,alleviated,reduced fecal lipocalin,no deleterious effect on body weight,2,protected the tissue from damage even with DSS,increasing the mRNA levels to normal,
"NC(=O)Cc1c[nH]c2ccccc12 [Indole-3-acetamide, indole-3-acetamide]",,,,,,,,,,,,,more effective when applied in this compartment than in the luminal

# Reference: patent publication US20240350456A1, “COMPOSITIONS AND METHODS FOR DIAGNOSING AND TREATING INFLAMMATORY CONDITIONS” (RUTGERS, THE STATE UNIVERSITY OF NEW JERSEY, priority 2023, published 2024)
